From article PMC10584170, “Machine learning-based phenotypic imaging to characterise the targetable biology of Plasmodium falciparum male gametocytes for the development of transmission-blocking antimalarials” (PLOS Pathogens, 2023)
Like-named read-outs stand apart in the source and are kept apart here.

Tests used:
HepG2 cells = test: HepG2 cytotoxicity counter-screen
[1] = test system: P. falciparum female gametocytes; test: P. falciparum Dual Gamete Formation Assay (PfDGFA), female readout (Pfs25-positive female gametes); format: cell-based, Plasmodium falciparum NF54; details: for Selectivity ratio F: HepG2 Tox50 versus female IC50; for IC50: PfDGFA, 24 h incubation with gametocytes before induction, female gamete readout, read-out: Female IC50; for HitlevelF: number of replicates with >50% inhibition in the female readout
In short: (§1)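 Read-outs are automated image counts of exflagellation centres (brightfield, 10 frames over 1 s) and Pfs25-positive female gametes (Cy3 fluorescence).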

[2] = test system: P. falciparum male gametocytes; test: P. falciparum Dual Gamete Formation Assay (PfDGFA), male readout (exflagellation); format: cell-based, Plasmodium falciparum NF54; details: for Selectivity Ratio M: HepG2 Tox50 versus male IC50; for IC50: PfDGFA, 24 h incubation with gametocytes before induction, exflagellation readout, read-out: Male IC50; for HitlevelM: number of replicates with >50% inhibition in the male readout
In short: as §1

[3] = cytotoxic activity against HepG2 cells
[4] = PfDGFA at 2µM, 24h preincubation with gametocytes, average of replicates
[5] = PfDGFA at 2µM, 24h preincubation with gametocytes, replicate R1
[6] = PfDGFA at 2µM, 24h preincubation with gametocytes, replicate R3
[7] = PfDGFA at 2µM, 24h preincubation with gametocytes, replicate R4
[8] = 2µM, 24h preincubation with gametocytes, average of replicates
[9] = 2µM, 24h preincubation with gametocytes, replicate R1
[10] = 2µM, 24h preincubation with gametocytes, replicate R3
[11] = 2µM, 24h preincubation with gametocytes, replicate R4
[12] = 2µM, 24h preincubation with gametocytes prior to induction of gametogenesis, average of replicates
[13] = 2µM, 24h preincubation with gametocytes prior to induction of gametogenesis, replicate R1
[14] = 2µM, 24h preincubation with gametocytes prior to induction of gametogenesis, replicate R3
[15] = 2µM, 24h preincubation with gametocytes prior to induction of gametogenesis, replicate R4

SMILES	Tox50 (HepG2 cells; [3]) [µM]	Selectivity ratio F [1]	Average inhibition female (%) [1, 4] [%]	% inhibition female (individual replicates) R1 [1, 5] [%]	% inhibition female (individual replicates) R3 [1, 6] [%]	% inhibition female (individual replicates) R4 [1, 7] [%]	IC50 [1] [µM]	HitlevelF ([1]; 2µM)	Selectivity Ratio M [2]	Average inhibition male (%) [2, 4] [%]	% inhibition male (individual replicates) R1 [2, 5] [%]	% inhibition male (individual replicates) R3 [2, 6] [%]	% inhibition male (individual replicates) R4 [2, 7] [%]	IC50 [2] [µM]	HitlevelM ([2]; 2µM)	Average inhibition female (%) [1, 8] [%]	% inhibition female (individual replicates) R1 [1, 9] [%]	% inhibition female (individual replicates) R3 [1, 10] [%]	% inhibition female (individual replicates) R4 [1, 11] [%]	Average inhibition male (%) [2, 8] [%]	other results
Cc1ccccc1OCC(O)CNC1CCC(NCC(O)COc2ccccc2C)CC1 (stereo not drawn) [TCMDC-125142]	5.33	3.94	34.1	36.4	18.2	27.5	1.35	1	2.74	76.7	73.4	61.7	90.9	1.94	4						
Cc1ccc(-n2c(Sc3ncnc4sccc34)nnc2N2CCCC2)cc1 [TCMDC-125247]	73.14	296.87						3	192.28						4						inhibition at 2 µM ([1]; Plasmodium falciparum, PfDGFA at 2µM, 24h preincubation with gametocytes, average of replicates, read-out: Average inhibition female (%)): 63.5%; inhibition at 2 µM ([1]; Plasmodium falciparum, PfDGFA at 2µM, 24h preincubation with gametocytes, replicate R1, read-out: % inhibition female (individual replicates) R1): 56.4%; inhibition at 2 µM ([1]; Plasmodium falciparum, PfDGFA at 2µM, 24h preincubation with gametocytes, replicate R2, read-out: % inhibition female (individual replicates) R2): 85.8%; inhibition at 2 µM ([1]; Plasmodium falciparum, PfDGFA at 2µM, 24h preincubation with gametocytes, replicate R3, read-out: % inhibition female (individual replicates) R3): 26.4%; inhibition at 2 µM ([1]; Plasmodium falciparum, PfDGFA at 2µM, 24h preincubation with gametocytes, replicate R4, read-out: % inhibition female (individual replicates) R4): 85.4%; IC50 ([1]; Plasmodium falciparum): 0.25 µM; inhibition at 2 µM ([2]; Plasmodium falciparum, PfDGFA at 2µM, 24h preincubation with gametocytes, average of replicates, read-out: Average inhibition male (%)): 74.6%; inhibition at 2 µM ([2]; Plasmodium falciparum, PfDGFA at 2µM, 24h preincubation with gametocytes, replicate R1, read-out: % inhibition male (individual replicates) R1): 86.9%; inhibition at 2 µM ([2]; Plasmodium falciparum, PfDGFA at 2µM, 24h preincubation with gametocytes, replicate R2, read-out: % inhibition male (individual replicates) R2): 67.1%; inhibition at 2 µM ([2]; Plasmodium falciparum, PfDGFA at 2µM, 24h preincubation with gametocytes, replicate R3, read-out: % inhibition male (individual replicates) R3): 80.2%; inhibition at 2 µM ([2]; Plasmodium falciparum, PfDGFA at 2µM, 24h preincubation with gametocytes, replicate R4, read-out: % inhibition male (individual replicates) R4): 64.2%; IC50 ([2]; Plasmodium falciparum): 0.38 µM
CCCC(N)C(=O)NC1CCN(c2c(F)c(N)c3c(=O)c(C(=O)O)cn4c3c2Oc2ccccc2-4)C1.Cl (stereo not drawn) [TCMDC-125701]	2.99	0.68					4.43		2.29					1.31		53.0	43.9	47.1	70.9	89.8	% inhibition male (individual replicates) R1 [2, 9]: 87.0%; % inhibition male (individual replicates) R3 [2, 10]: 88.1%; % inhibition male (individual replicates) R4 [2, 11]: 95.7%
S=C(NN=Cc1ccccn1)NC1CC2C=CC1C2 (stereo not drawn) [TCMDC-125752]	0.14	0.3					0.48		0.29					0.5		59.8	34.4	45.5	74.2	101.0	% inhibition male (individual replicates) R1 [2, 9]: 99.9%; % inhibition male (individual replicates) R3 [2, 10]: 101.6%; % inhibition male (individual replicates) R4 [2, 11]: 102.9%
CCC1CN2CCc3cc(OC)c(OC)cc3C2CC1CC1NCCc2cc(OC)c(OC)cc21.Cl (stereo not drawn) [TCMDC-125849]	27.47																				HitlevelF ([1]; 2µM, 24h preincubation): 4; times more potent against females than males ([1]; PfDGFA female versus male gametocytes): 4.7; inhibition at 2 µM ([1]; Plasmodium falciparum, 2µM, 24h preincubation with gametocytes prior to induction of gametogenesis, average of replicates, read-out: Average inhibition female (%)): 93.3%; inhibition at 2 µM ([1]; Plasmodium falciparum, 2µM, 24h preincubation with gametocytes prior to induction of gametogenesis, replicate R1, read-out: % inhibition female (individual replicates) R1): 91%; inhibition at 2 µM ([1]; Plasmodium falciparum, 2µM, 24h preincubation with gametocytes prior to induction of gametogenesis, replicate R2, read-out: % inhibition female (individual replicates) R2): 79%; inhibition at 2 µM ([1]; Plasmodium falciparum, 2µM, 24h preincubation with gametocytes prior to induction of gametogenesis, replicate R3, read-out: % inhibition female (individual replicates) R3): 103%; inhibition at 2 µM ([1]; Plasmodium falciparum, 2µM, 24h preincubation with gametocytes prior to induction of gametogenesis, replicate R4, read-out: % inhibition female (individual replicates) R4): 100%; IC50 ([1]; Plasmodium falciparum): 0.75 µM; HitlevelM ([2]; 2µM, 24h preincubation): 2; inhibition at 2 µM ([2]; Plasmodium falciparum, 2µM, 24h preincubation with gametocytes prior to induction of gametogenesis, average of replicates, read-out: Average inhibition male (%)): 47.7%; inhibition at 2 µM ([2]; Plasmodium falciparum, 2µM, 24h preincubation with gametocytes prior to induction of gametogenesis, replicate R1, read-out: % inhibition male (individual replicates) R1): 38.6%; inhibition at 2 µM ([2]; Plasmodium falciparum, 2µM, 24h preincubation with gametocytes prior to induction of gametogenesis, replicate R2, read-out: % inhibition male (individual replicates) R2): 27.6%; inhibition at 2 µM ([2]; Plasmodium falciparum, 2µM, 24h preincubation with gametocytes prior to induction of gametogenesis, replicate R3, read-out: % inhibition male (individual replicates) R3): 59.3%; inhibition at 2 µM ([2]; Plasmodium falciparum, 2µM, 24h preincubation with gametocytes prior to induction of gametogenesis, replicate R4, read-out: % inhibition male (individual replicates) R4): 65.1%; IC50 ([2]; Plasmodium falciparum): 3.53 µM
COc1ccc(CCNCCCCCCNCCc2ccc(Cl)c3ccccc23)cc1OC.Cl [TCMDC-131270]	4.03	0.76					5.3		2.16					1.87		44.5	48.1	32.3	35.6	92.0	% inhibition male (individual replicates) R1 [2, 9]: 90.1%; % inhibition male (individual replicates) R4 [2, 11]: 89.1%
COc1ccc(CCNCCCCCCNCCc2ccc(Cl)cc2)c(Cl)c1OC.Cl [TCMDC-131272]	4.93	1.14	29.4	25.7	-3.5	29.5	4.35	1	2.8	69.3	64.8	45.7	90.2	1.76	3						
C[C@H](Cc1ccc(Oc2ccc(C[C@@H](C)NC[C@H](O)c3cccc(Cl)c3)cc2)cc1)NC[C@H](O)c1cccc(Cl)c1.Cl [TCMDC-131560]	3.07	1.25	43.2	35.8	26.6	73.1	2.46	1	2.05	76.2	79.7	57.0	91.6	1.5	4						
C[C@H](Cc1ccc(OCCCCCOc2ccc(C[C@@H](C)NC[C@H](O)c3cccc(Cl)c3)cc2)cc1)NC[C@H](O)c1cccc(Cl)c1.Cl [TCMDC-131563]	3.24	1.3	27.5	37.3	14.2	41.5	2.49	0	2.4	65.6	66.8	65.3	85.7	1.35	3						
CC[C@H]1CN2CCc3cc(OC)c(OC)cc3[C@@H]2C[C@@H]1C[C@H]1NCCc2c1cc(OC)c(O)c2Cl [TCMDC-131802]							0.64							1.91							Tox50 (HepG2 cells): 1.67 µM; Average inhibition female (%) [1, 12]: 66.5%; % inhibition female (individual replicates) R1 [1, 13]: 51.1%; % inhibition female (individual replicates) R3 [1, 14]: 66.5%; % inhibition female (individual replicates) R4 [1, 15]: 85.4%; HitlevelF ([1]; 2µM, 24h preincubation): 4; Average inhibition male (%) [2, 12]: 54.2%; % inhibition male (individual replicates) R1 [2, 13]: 49.4%; % inhibition male (individual replicates) R3 [2, 14]: 27.8%; % inhibition male (individual replicates) R4 [2, 15]: 72.9%; HitlevelM ([2]; 2µM, 24h preincubation): 2
